Patent publication US12466812B2, “Pyridinyltriazine derivative having protein kinase inhibitory activity, and pharmaceutical composition for preventing, ameliorating, or treating cancer comprising same” (KOREA INSTITUTE OF SCIENCE AND TECHNOLOGY, priority 2019, dated 2025)

Key:
[1] = system: AN3-CA, a uterine cancer cell line; test: Inhibitory activity against cancer cell proliferation (Experimental Example 2); format: cell-based; conditions: Homo sapiens, Table 2
[2] = system: J82 (bladder cancer cell line); test: Pan-FGFR mutant cellular activity; format: cell-based; conditions: Table 4
Experimental: (§1) The inhibitory activity against pan-FGFR mutants of the compounds synthesized in Examples 1, 8, 13, 22, and 24 was measured, the inhibitory activity on each of enzymatic activity and cellular activity was evaluated, and the results are shown in Tables 3 and 4 below.

[3] = system: KMS-11 (myeloma cell line); test: Pan-FGFR mutant cellular activity; format: cell-based; conditions: Homo sapiens, Table 4
Experimental: as §1

[4] = system: UMUC3 (bladder cancer cell line); test: Pan-FGFR mutant cellular activity; format: cell-based; conditions: Homo sapiens, Table 4
Experimental: as §1

AN3-CA = test: Pan-FGFR mutant cellular activity; format: cell-based; conditions: Homo sapiens, mutant cell, Table 4, read-out: GI50, AN3-CA (breast cancer cell line)
Experimental: as §1

FGFR2 mutant (V564F) = FGFR2 mutant (V564F) (Homo sapiens, UniProt P21802, V564F); test: Pan-FGFR mutant enzymatic activity; format: biochemical; conditions: mutant enzyme
Experimental: as §1

FGFR2 mutant (N549H) = FGFR2 mutant (N549H) (Homo sapiens, UniProt P21802, N549H); test: Pan-FGFR mutant enzymatic activity; format: biochemical; conditions: mutant enzyme
Experimental: as §1

FGFR3 mutant (K650E) = FGFR3 mutant (K650E) (Homo sapiens, UniProt P22607, K650E); test: Pan-FGFR mutant enzymatic activity; format: biochemical; conditions: mutant enzyme
Experimental: as §1

FGFR3 mutant (K650M) = FGFR3 mutant (K650M) (Homo sapiens, UniProt P22607, K650M); test: Pan-FGFR mutant enzymatic activity; format: biochemical; conditions: mutant enzyme
Experimental: as §1

FGFR3 mutant (V555M) = FGFR3 mutant (V555M) (Homo sapiens, UniProt P22607, V555M); test: Pan-FGFR mutant enzymatic activity; format: biochemical; conditions: mutant enzyme
Experimental: as §1

[5] = In-vivo PK profile (mouse PK/ICR mice); conditions: plasma, ICR mice, PO 10 mg/kg
Microsomal stability [6] = format: in vitro ADME; conditions: dog liver microsomes, based on sample taken at 0 minutes
Microsomal stability [7] = format: in vitro ADME; conditions: mouse liver microsomes, based on sample taken at 0 minutes
CYP3A4 = CYP3A4 (Homo sapiens, UniProt P08684); test: Inhibitory activity against CYP metabolic enzyme; format: in vitro ADME
Experimental: (§2) In order to determine whether or not there is a possibility that the compounds synthesized in Examples 1, 22, and 24 of the present invention can cause side effects of drug interaction, the rate (%) of inhibition against 5 major metabolic enzymes (CYP1A2, CYP2C9, CYP2C19, CYP2D6, and CYP3A4) among CYPs (cytochrome P450), which are enzymes involved in oxidative metabolism of drugs, was measured. […] That is, it can be seen that the compound of the present invention has a low possibility of causing side effects of drug interaction.

CYP2C19 = CYP2C19 (Homo sapiens, UniProt P33261); test: Inhibitory activity against CYP metabolic enzyme; format: in vitro ADME
Experimental: as §2

CYP2D6 = CYP2D6 (Homo sapiens, UniProt P10635); test: Inhibitory activity against CYP metabolic enzyme; format: in vitro ADME
Experimental: as §2

CYP1A2 = target: T1, CYP1A2 (Homo sapiens, UniProt P05177); test: Inhibitory activity against CYP metabolic enzyme; format: in vitro ADME
T1 sequence (P05177 1-516): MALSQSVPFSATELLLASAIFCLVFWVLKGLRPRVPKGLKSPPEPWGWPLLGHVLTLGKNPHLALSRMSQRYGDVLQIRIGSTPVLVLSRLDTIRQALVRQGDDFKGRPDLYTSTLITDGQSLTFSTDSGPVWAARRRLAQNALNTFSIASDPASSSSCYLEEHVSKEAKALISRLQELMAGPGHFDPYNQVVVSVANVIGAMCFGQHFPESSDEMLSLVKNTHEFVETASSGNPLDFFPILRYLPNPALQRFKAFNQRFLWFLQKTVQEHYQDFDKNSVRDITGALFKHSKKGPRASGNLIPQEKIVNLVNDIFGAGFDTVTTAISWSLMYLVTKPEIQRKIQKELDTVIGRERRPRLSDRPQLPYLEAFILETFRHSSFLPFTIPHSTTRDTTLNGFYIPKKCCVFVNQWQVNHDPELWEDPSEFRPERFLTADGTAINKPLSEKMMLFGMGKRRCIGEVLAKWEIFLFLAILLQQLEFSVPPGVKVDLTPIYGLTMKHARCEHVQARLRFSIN
Experimental: as §2

Microsomal stability [8] = format: in vitro ADME; conditions: rat liver microsomes, based on sample taken at 0 minutes
Microsomal stability [9] = format: in vitro ADME; conditions: human liver microsomes, based on sample taken at 0 minutes

Sequence of FGFR2 mutant (N549H) (P21802 22-821 N549H): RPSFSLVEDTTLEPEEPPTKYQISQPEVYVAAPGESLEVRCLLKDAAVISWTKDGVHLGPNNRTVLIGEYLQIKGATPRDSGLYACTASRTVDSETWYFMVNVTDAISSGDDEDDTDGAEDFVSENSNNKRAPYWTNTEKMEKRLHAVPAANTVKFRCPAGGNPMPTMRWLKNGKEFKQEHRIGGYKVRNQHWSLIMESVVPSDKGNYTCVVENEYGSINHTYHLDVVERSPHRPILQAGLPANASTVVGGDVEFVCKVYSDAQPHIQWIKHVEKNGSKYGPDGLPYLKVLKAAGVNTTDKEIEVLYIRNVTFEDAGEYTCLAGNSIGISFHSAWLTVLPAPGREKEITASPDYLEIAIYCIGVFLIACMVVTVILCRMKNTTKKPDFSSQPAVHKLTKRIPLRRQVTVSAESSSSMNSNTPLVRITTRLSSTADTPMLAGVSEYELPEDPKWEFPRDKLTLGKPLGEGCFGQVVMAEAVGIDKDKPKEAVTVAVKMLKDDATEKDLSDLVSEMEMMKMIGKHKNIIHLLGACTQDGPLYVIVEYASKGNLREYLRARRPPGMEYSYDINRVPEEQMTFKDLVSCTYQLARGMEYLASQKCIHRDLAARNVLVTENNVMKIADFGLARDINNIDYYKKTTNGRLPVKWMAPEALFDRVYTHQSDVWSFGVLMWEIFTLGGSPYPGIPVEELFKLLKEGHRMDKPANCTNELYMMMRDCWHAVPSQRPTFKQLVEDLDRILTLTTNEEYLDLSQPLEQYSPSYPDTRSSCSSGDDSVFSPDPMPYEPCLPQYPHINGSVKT
Sequence of FGFR3 mutant (V555M) (P22607 23-806 V555M): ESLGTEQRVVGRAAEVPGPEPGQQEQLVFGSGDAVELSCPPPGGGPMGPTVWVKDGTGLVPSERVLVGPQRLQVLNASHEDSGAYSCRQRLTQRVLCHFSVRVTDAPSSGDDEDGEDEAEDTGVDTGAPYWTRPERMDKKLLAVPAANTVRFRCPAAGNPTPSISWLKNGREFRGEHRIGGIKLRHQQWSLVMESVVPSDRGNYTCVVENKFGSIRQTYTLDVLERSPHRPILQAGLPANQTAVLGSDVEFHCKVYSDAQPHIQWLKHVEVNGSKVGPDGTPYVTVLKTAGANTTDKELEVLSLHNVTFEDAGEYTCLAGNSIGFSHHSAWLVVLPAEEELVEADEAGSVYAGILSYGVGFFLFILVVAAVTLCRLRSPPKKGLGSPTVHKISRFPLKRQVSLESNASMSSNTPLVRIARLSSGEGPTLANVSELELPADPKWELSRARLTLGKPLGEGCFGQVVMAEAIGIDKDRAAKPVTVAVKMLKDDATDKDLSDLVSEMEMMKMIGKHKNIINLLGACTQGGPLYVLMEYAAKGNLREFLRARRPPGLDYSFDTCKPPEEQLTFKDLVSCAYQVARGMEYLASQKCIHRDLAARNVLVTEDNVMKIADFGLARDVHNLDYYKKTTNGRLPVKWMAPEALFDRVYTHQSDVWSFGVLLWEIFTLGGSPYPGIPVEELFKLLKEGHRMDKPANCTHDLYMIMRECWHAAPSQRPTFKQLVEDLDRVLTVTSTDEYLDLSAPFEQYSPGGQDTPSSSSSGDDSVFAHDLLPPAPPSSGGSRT
Sequence of FGFR3 mutant (K650E) (P22607 23-806 K650E): as the sequence (P22607 23-806 V555M) above, with M533V, K628E counted along it
Sequence of FGFR3 mutant (K650M) (P22607 23-806 K650M): as the sequence (P22607 23-806 V555M) above, with M533V, K628M counted along it
Sequence of FGFR2 mutant (V564F) (P21802 22-821 V564F): as the sequence (P21802 22-821 N549H) above, with H528N, V543F counted along it
Sequence of CYP2C19 (P33261 whole entry): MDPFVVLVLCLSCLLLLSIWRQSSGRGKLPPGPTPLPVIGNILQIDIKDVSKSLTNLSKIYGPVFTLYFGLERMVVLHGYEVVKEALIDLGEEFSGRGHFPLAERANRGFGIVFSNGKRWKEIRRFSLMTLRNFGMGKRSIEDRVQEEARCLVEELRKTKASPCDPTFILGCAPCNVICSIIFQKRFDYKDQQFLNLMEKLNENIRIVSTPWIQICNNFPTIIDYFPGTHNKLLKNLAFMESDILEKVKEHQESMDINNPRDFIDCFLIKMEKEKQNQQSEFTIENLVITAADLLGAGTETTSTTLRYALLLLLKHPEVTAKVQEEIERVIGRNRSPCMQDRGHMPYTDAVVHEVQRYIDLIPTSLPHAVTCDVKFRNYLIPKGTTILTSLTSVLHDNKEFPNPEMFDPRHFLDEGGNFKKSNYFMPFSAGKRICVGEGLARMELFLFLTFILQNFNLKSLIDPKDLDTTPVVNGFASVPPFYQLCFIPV
Sequence of CYP3A4 (P08684 whole entry): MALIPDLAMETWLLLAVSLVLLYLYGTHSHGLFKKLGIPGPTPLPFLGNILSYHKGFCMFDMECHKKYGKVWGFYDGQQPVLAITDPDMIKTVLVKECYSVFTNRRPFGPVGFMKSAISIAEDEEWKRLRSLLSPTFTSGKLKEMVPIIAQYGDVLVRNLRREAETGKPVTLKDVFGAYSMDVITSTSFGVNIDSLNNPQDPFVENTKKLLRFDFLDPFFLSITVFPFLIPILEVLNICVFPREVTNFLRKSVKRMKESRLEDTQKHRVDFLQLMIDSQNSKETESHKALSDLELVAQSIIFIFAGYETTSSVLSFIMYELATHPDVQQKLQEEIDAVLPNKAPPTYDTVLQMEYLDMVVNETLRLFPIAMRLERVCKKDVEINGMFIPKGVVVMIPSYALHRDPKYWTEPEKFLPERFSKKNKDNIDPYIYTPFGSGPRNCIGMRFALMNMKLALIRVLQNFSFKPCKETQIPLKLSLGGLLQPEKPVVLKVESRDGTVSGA
Sequence of CYP2D6 (P10635 whole entry): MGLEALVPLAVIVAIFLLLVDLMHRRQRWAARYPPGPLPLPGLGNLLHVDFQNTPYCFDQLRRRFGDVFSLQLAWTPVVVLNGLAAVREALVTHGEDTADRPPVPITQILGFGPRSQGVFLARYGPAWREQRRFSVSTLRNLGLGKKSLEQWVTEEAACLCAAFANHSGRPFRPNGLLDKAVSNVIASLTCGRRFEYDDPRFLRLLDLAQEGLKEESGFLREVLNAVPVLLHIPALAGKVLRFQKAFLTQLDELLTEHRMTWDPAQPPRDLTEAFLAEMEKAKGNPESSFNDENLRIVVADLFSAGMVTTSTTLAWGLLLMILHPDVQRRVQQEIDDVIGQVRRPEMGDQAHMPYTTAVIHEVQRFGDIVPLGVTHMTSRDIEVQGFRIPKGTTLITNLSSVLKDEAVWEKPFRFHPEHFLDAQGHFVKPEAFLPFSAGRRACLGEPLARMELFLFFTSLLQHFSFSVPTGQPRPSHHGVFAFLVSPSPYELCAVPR

`COc1cc(OC)c(Cl)c(Nc2ncccc2-c2ncnc(NCCN(C)C)n2)c1Cl` [Example 3, N^1-(4-(2-((2,6-dichloro-3,5-dimethoxyphenyl)amino)pyridin-3-yl)-1,3,5-triazin-2-yl)-N^2,N^2-dimethylethane-1,2-diamine] showed a GI50 [1] of 1000 to 10000 nM.
`COc1cccc(Nc2ncnc(-c3cccnc3Nc3c(Cl)c(OC)cc(OC)c3Cl)n2)c1` [Example 6] gave a GI50 [1] of under 1000 nM.
In the case of `COc1cc(OC)c(Cl)c(Nc2ncccc2-c2ncnc(Nc3cnn(C)c3)n2)c1Cl` [Example 18], the GI50 [1] is reported as under 1000 nM.
`COc1cc(OC)c(Cl)c(Nc2ncccc2-c2ncnc(Nc3ccc(N4CCOCC4)nc3OC)n2)c1Cl` [Example 16] showed a GI50 [1] of over 10000 nM.
With `COc1cc(N2CCOCC2)ccc1Nc1ncnc(-c2cccnc2Nc2c(Cl)c(OC)cc(OC)c2Cl)n1` [Example 15] the GI50 [1] was over 10000 nM.
Compound `CCN1CCN(c2cccc(Nc3ncnc(-c4cccnc4Nc4c(Cl)c(OC)cc(OC)c4Cl)n3)c2)CC1` [Example 8] has a GI50 [2] of 1000 to 10000 nM, a GI50 [3] of under 1000 nM and a GI50 [4] of 1000 to 10000 nM. It also gave a GI50 (AN3-CA) of under 1000 nM, an IC50 (FGFR2 mutant (V564F)) of 100 to 1000 nM and an IC50 (FGFR2 mutant (N549H)) of under 100 nM. The IC50 (FGFR3 mutant (K650E)) was under 100 nM, the IC50 (FGFR3 mutant (K650M)) was under 100 nM and the IC50 (FGFR3 mutant (V555M)) was 100 to 1000 nM. It also gave a GI50 [1] of under 1000 nM.
Work on `COc1cc(OC)c(Cl)c(Nc2ncccc2-c2ncnc(Nc3cnn(C4CCOCC4)c3)n2)c1Cl` [Example 21, 4-(2-((2,6-dichloro-3,5-dimethoxyphenyl)amino)pyridin-3-yl)-N-(1-(tetrahydro-2H-pyran-4-yl)-1H-pyrazol-4-yl)-1,3,5-triazin-2-amine] yielded a GI50 [1] of under 1000 nM.
`COc1cc(OC)c(Cl)c(Nc2ncccc2-c2ncnc(Nc3cnn(C4CCN(C(=O)OC(C)(C)C)CC4)c3)n2)c1Cl` [Example 23, Tert-butyl 4-(4-((4-(2-((2,6-dichloro-3,5-dimethoxyphenyl)amino)pyridin-3-yl)-1,3,5-triazin-2-yl)amino)-1H-pyrazol-1-yl) piperidine-1-carboxylate] showed a GI50 [1] of under 1000 nM.
Compound `COc1cc(OC)c(Cl)c(Nc2ncccc2-c2ncnc(N)n2)c1Cl` [Example 2, 4-(2-((2,6-dichloro-3,5-dimethoxyphenyl)amino)pyridin-3-yl)-1,3,5-triazin-2-amine] has a GI50 [1] of under 1000 nM.
`COc1cc(OC)c(Cl)c(Nc2ncccc2-c2ncnc(Nc3ccc(N4CCN(C(C)=O)CC4)cc3)n2)c1Cl` [Example 11, 1-(4-(4-((4-(2-((2,6-dichloro-3,5-dimethoxyphenyl)amino)pyridin-3-yl)-1,3,5-triazin-2-yl)amino)phenyl)piperazin-1-yl)ethan-1-one] gave a GI50 [1] of under 1000 nM.
Work on `COc1cc(OC)c(Cl)c(Nc2ncccc2-c2ncnc(Nc3ccc(N4CCOCC4)nc3)n2)c1Cl` [Example 10] yielded a GI50 [1] of under 1000 nM.
`COc1cc(N2C[C@@H](C)N[C@@H](C)C2)ccc1Nc1ncnc(-c2cccnc2Nc2c(Cl)c(OC)cc(OC)c2Cl)n1` [Example 17] showed a GI50 [1] of under 1000 nM.
Compound `COc1cc(OC)c(Cl)c(Nc2ncccc2-c2ncnc(Nc3ccc(N4CCOCC4)cc3)n2)c1Cl` [Example 9] has a GI50 [1] of 1000 to 10000 nM.
Compound `C=CCn1cc(Nc2ncnc(-c3cccnc3Nc3c(Cl)c(OC)cc(OC)c3Cl)n2)cn1` [Example 19, N-(1-allyl-1H-pyrazol-4-yl)-4-(2-((2,6-dichloro-3,5-dimethoxyphenyl)amino)pyridin-3-yl)-1,3,5-triazin-2-amine] has a GI50 [1] of over 10000 nM.
With `COc1cc(OC)c(Cl)c(Nc2ncccc2-c2ncnc(Nc3ccc(N4C[C@@H](C)N[C@@H](C)C4)cc3)n2)c1Cl` [Example 13] the GI50 [2] was under 1000 nM, the GI50 [3] was under 1000 nM and the GI50 [4] was 1000 to 10000 nM. For the same compound, the GI50 (AN3-CA) was under 1000 nM, the IC50 (FGFR2 mutant (V564F)) was 100 to 1000 nM and the IC50 (FGFR2 mutant (N549H)) was under 100 nM. For the same compound, the IC50 (FGFR3 mutant (K650E)) was under 100 nM, the IC50 (FGFR3 mutant (K650M)) was under 100 nM and the IC50 (FGFR3 mutant (V555M)) was 100 to 1000 nM. The GI50 [1] was under 1000 nM.
Work on `COc1cc(OC)c(Cl)c(Nc2ncccc2-c2ncnc(Nc3cnn(CCCN(C)C)c3)n2)c1Cl` [Example 20, 4-(2-((2,6-dichloro-3,5-dimethoxyphenyl)amino)pyridin-3-yl)-N-(1-(3-(dimethylamino)propyl)-1H-pyrazol-4-yl)-1,3,5-triazin-2-amine] yielded a GI50 [1] of under 1000 nM.
In the case of `COc1cc(OC)c(Cl)c(Nc2ncccc2-c2ncnc(Nc3ccc(N(C)C)cc3)n2)c1Cl` [Example 7, N^1-(4-(2-((2,6-dichloro-3,5-dimethoxyphenyl)amino)pyridin-3-yl)-1,3,5-triazin-2-yl)-N^4,N^4-dimethylbenzene-1,4-diamine], the GI50 [1] is reported as under 1000 nM.
With `COc1cc(N2CCN(C)CC2)ccc1Nc1ncnc(-c2cccnc2Nc2c(Cl)c(OC)cc(OC)c2Cl)n1` [Example 14] the GI50 [1] was under 1000 nM.
Work on `COc1cc(OC)c(Cl)c(Nc2ncccc2-c2ncnc(Nc3ccccc3)n2)c1Cl` [Example 4, 4-(2-((2,6-dichloro-3,5-dimethoxyphenyl)amino)pyridin-3-yl)-N-phenyl-1,3,5-triazin-2-amine] yielded a GI50 [1] of under 1000 nM.
Work on `COc1cc(OC)c(Cl)c(Nc2ncccc2-c2ncnc(Nc3cnn(C4CCNCC4)c3)n2)c1Cl` [Example 24, 4-(2-((2,6-dichloro-3,5-dimethoxyphenyl)amino)pyridin-3-yl)-N-(1-(piperidin-4-yl)-1H-pyrazol-4-yl)-1,3,5-triazin-2-amine] yielded a Cmax [5] of 153 ng/mL, an MRT inf [5] of 7.94 h and a Tmax [5] of 0.42 h. The half-life [5] was 4.83 h, the “remaining (%) after reaction with the microsome, Dog” value (Microsomal stability [6]) was 66.9% and the “remaining (%) after reaction with the microsome, Dog” value (Microsomal stability [6]; listed as Compound No. 24) was 66.9%. For the same compound, the “remaining (%) after reaction with the microsome, Mouse” value (Microsomal stability [7]) was 62.1%, the “remaining (%) after reaction with the microsome, Mouse” value (Microsomal stability [7]; listed as Compound No. 24) was 62.1% and the GI50 [2] was 1000 to 10000 nM. The GI50 [3] was under 1000 nM, the GI50 [4] was 1000 to 10000 nM and the GI50 (AN3-CA) was under 1000 nM. For the same compound, the “rate (%) of inhibition, CYP3A4” value (CYP3A4) was 44.1%, the “rate (%) of inhibition, CYP2C19” value (CYP2C19) was 51.0% and the “rate (%) of inhibition, CYP2D6” value (CYP2D6) was over 100%. The “rate (%) of inhibition, CYP1A2” value (CYP1A2) was 72.8%, the IC50 (FGFR2 mutant (V564F)) was 100 to 1000 nM and the IC50 (FGFR2 mutant (N549H)) was under 100 nM. For the same compound, the IC50 (FGFR3 mutant (K650E)) was under 100 nM, the IC50 (FGFR3 mutant (K650M)) was under 100 nM and the IC50 (FGFR3 mutant (V555M)) was 100 to 1000 nM. For the same compound, the “remaining (%) after reaction with the microsome, Rat” value (Microsomal stability [8]) was 65.4%, the “remaining (%) after reaction with the microsome, Rat” value (Microsomal stability [8]; listed as Compound No. 24) was 65.43% and the GI50 [1] was under 1000 nM. The “remaining (%) after reaction with the microsome, Human” value (Microsomal stability [9]) was 62.6% and the “remaining (%) after reaction with the microsome, Human” value (Microsomal stability [9]; listed as Compound No. 24) was 62.6%.
With `COc1ccccc1Nc1ncnc(-c2cccnc2Nc2c(Cl)c(OC)cc(OC)c2Cl)n1` [Example 5] the GI50 [1] was 1000 to 10000 nM.
Compound `COc1cc(OC)c(Cl)c(Nc2ncccc2-c2ncnc(Nc3ccc(N4CCC(O)CC4)cc3)n2)c1Cl` [Example 12] has a GI50 [1] of under 1000 nM.
